According to the NIST ThermoML archive (doi:10.1016/j.jct.2005.07.003):
Values joined by “and” are separate entries in the source; they are usually repeats but may differ in a detail not shown here. Equal entries are not always repeated. ± gives the expanded uncertainty stated by the source.

Test: activity coefficient (dimensionless); of the first substance listed, at infinite dilution; xn = mol fraction of the nth substance listed
Conditions: 101 kPa, Liquid, Chromatography, x1 = 0

## CCCCCCCC [octane] + CCCCCCCC[n+]1ccn(C)c1.COCCOCCOS(=O)(=O)[O-]
288.15 K
  activity coefficient: 22.6 and 22.2
298.15 K
  activity coefficient: 21.1 and 19.7
313.15 K
  activity coefficient: 16.4 ± 1.7

## CCCCC [pentane] + CCCCCCCC[n+]1ccn(C)c1.COCCOCCOS(=O)(=O)[O-]
288.15 K
  activity coefficient: 12.6 and 11.6
298.15 K
  activity coefficient: 10.6 and 10.3
313.15 K
  activity coefficient: 10 and 9.5

## C=CCCCC [hex-1-ene] + CCCCCCCC[n+]1ccn(C)c1.COCCOCCOS(=O)(=O)[O-]
288.15 K
  activity coefficient: 8.61 and 8.47
298.15 K
  activity coefficient: 8.14 and 8.33
313.15 K
  activity coefficient: 7.47 and 7.74

## C#CCCCCC [1-heptyne] + CCCCCCCC[n+]1ccn(C)c1.COCCOCCOS(=O)(=O)[O-]
288.15 K
  activity coefficient: 5.69 and 5.38
298.15 K
  activity coefficient: 4.92 and 5.11
313.15 K
  activity coefficient: 4.7 and 4.67

## C1CCCC1 [cyclopentane] + CCCCCCCC[n+]1ccn(C)c1.COCCOCCOS(=O)(=O)[O-]
288.15 K
  activity coefficient: 6.4 and 6.14
298.15 K
  activity coefficient: 5.1 and 5.86
313.15 K
  activity coefficient: 5.24 and 5.16

## C=CCCCCC [1-heptene] + CCCCCCCC[n+]1ccn(C)c1.COCCOCCOS(=O)(=O)[O-]
288.15 K
  activity coefficient: 10.3 and 10.8
298.15 K
  activity coefficient: 10.5 and 10.1
313.15 K
  activity coefficient: 8.51 and 9.33

## CCCCCCC [heptane] + CCCCCCCC[n+]1ccn(C)c1.COCCOCCOS(=O)(=O)[O-]
288.15 K
  activity coefficient: 17.9 and 17.4
298.15 K
  activity coefficient: 16.4 and 16
313.15 K
  activity coefficient: 13.5 and 13.3

## C=CCCCCCC [oct-1-ene] + CCCCCCCC[n+]1ccn(C)c1.COCCOCCOS(=O)(=O)[O-]
288.15 K
  activity coefficient: 13.7 and 14
298.15 K
  activity coefficient: 13.1 and 13.2
313.15 K
  activity coefficient: 12 and 11.4

## c1ccccc1 [benzene] + CCCCCCCC[n+]1ccn(C)c1.COCCOCCOS(=O)(=O)[O-]
288.15 K
  activity coefficient: 1.33 ± 0.14
298.15 K
  activity coefficient: 1.33 and 1.46
313.15 K
  activity coefficient: 1.37 and 1.35

## CCCCCC [hexane] + CCCCCCCC[n+]1ccn(C)c1.COCCOCCOS(=O)(=O)[O-]
288.15 K
  activity coefficient: 14 ± 1.5
298.15 K
  activity coefficient: 12.8 and 12.9
313.15 K
  activity coefficient: 11.9 and 11.8

## CO [methanol] + CCCCCCCC[n+]1ccn(C)c1.COCCOCCOS(=O)(=O)[O-]
288.15 K
  activity coefficient: 0.37 and 0.44
298.15 K
  activity coefficient: 0.38 ± 0.05
313.15 K
  activity coefficient: 0.36 and 0.38

## C1CCCCCC1 [cycloheptane] + CCCCCCCC[n+]1ccn(C)c1.COCCOCCOS(=O)(=O)[O-]
288.15 K
  activity coefficient: 9.65 and 10.1
298.15 K
  activity coefficient: 9.02 and 8.83
313.15 K
  activity coefficient: 7.53 and 7.45

## C1CCCCCCC1 [cyclooctane] + CCCCCCCC[n+]1ccn(C)c1.COCCOCCOS(=O)(=O)[O-]
288.15 K
  activity coefficient: 11.2 and 10.3
313.15 K
  activity coefficient: 8.74 and 8.65

## C1CCCCC1 [cyclohexane] + CCCCCCCC[n+]1ccn(C)c1.COCCOCCOS(=O)(=O)[O-]
288.15 K
  activity coefficient: 8.52 and 8.34
298.15 K
  activity coefficient: 7.86 ± 0.83
313.15 K
  activity coefficient: 6.83 and 6.79
